Among the data in ChEMBL document CHEMBL2346650, “Cytotoxic scalarane sesterterpenes from a Korean marine sponge Psammocinia sp” (Bioorg Med Chem Lett, 2013) are IC50 values, retold here.

The structures appear in SMILES notation. Where only a bound is given, the exact number is not on record here.

Usually IC50 stands for the concentration needed to halve the response being measured.

One assay concerns CV-1. Nature of the assay: Cytotoxicity against african green monkey CV1 cells after 72 hrs by MTT assay. It is filed as cell-based. Conditions: Chlorocebus aethiops, CV-1, 72 h. Background: Tetrazolium dyes change colour on reduction, which living cells bring about.
Assay [1] in a line: Cytotoxicity against human MiaPaCa cells after 72 hrs by MTT assay. It is filed as functional, cell-based. Conditions: MIA PaCa-2, 72 h.
A further assay concerns PANC-1. Nature of the assay: Cytotoxicity against human PANC1 cells after 72 hrs by MTT assay. The format is functional, cell-based. Conditions: PANC-1, 72 h.
For another assay, the system named is ACHN. Nature of the assay: Cytotoxicity against human ACHN cells after 72 hrs by MTT assay. It is filed as functional, cell-based.
The next assay relates to A498. The assay is described as follows: Cytotoxicity against human A498 cells after 72 hrs by MTT assay. Conditions: A498, 72 h. The format is functional, cell-based.

In the case of `CC(=O)OC[C@]12CCCC(C)(C)[C@@H]1CC[C@]1(C)[C@@H]2C[C@@H](OC(C)=O)[C@]2(C)c3cocc3CC[C@@H]12`, the concentration for half-maximal inhibition (IC50) in the assay on CV-1 was above 50 µM; in assay [1], 31.1 µM; in the assay with PANC-1 it was 48 µM; in the assay with ACHN it was above 50 µM; with A498 it was above 50 µM.
Take `CC(=O)O[C@@H]1OC=C2[C@@H](OC(C)=O)C[C@@H]3[C@](C)(CC[C@H]4[C@@]3(C)CC[C@H]3C(C)(C)CCC[C@@]34CO)[C@H]21`: the half-inhibitory concentration (IC50) in the assay with CV-1 is 0.8 µM; in assay [1], 0.7 µM; in the assay on PANC-1, 0.4 µM; in the assay on ACHN it was 0.4 µM; with A498, 0.7 µM.
Regarding `CC(=O)OC[C@]12CCCC(C)(C)[C@@H]1CC[C@@]1(C)[C@@H]3CC=C4C(=O)O[C@@H](O)[C@@H]4[C@@]3(C)CC[C@@H]12`, the IC50 in the assay on CV-1 turned out to be 2.1 µM; in assay [1], 1.2 µM; in the assay on PANC-1 it was 1.3 µM; with ACHN, 1.3 µM; in the assay with A498 it was 1.3 µM.
For the molecule `CC(=O)OC[C@]12CCCC(C)(C)[C@@H]1CC[C@@]1(C)[C@@H]3C[C@H](OC(C)=O)C4=CO[C@@H](OC(C)=O)[C@@H]4[C@@]3(C)CC[C@@H]12`, the IC50 in the assay on CV-1 amounted to 3 µM; in assay [1] it was 2.8 µM; with PANC-1 it was 1.6 µM; in the assay on ACHN it was 5.8 µM; in the assay with A498 it was 5.7 µM.
In the case of `CC1(C)CCC[C@@]2(CO)[C@H]1CC[C@]1(C)[C@@H]2CC[C@]2(C)C3=C(C(=O)O[C@H]3O)C(O)C[C@@H]12` (mixture of isomers), the IC50 was above 50 µM in the assay with CV-1; above 50 µM in assay [1]; above 50 µM with PANC-1; above 50 µM with ACHN; 40.7 µM with A498.
Take `CC1(C)CCC[C@@]2(CO)[C@H]1CC[C@@]1(C)[C@@H]3CC=C(C=O)[C@H](C=O)[C@@]3(C)CC[C@@H]12` [12-DEACETOXY-23-HYDROXYSCALARADIAL]: the IC50 in the assay on CV-1 is above 50 µM; in assay [1] it was 31.1 µM; in the assay with PANC-1, 34.3 µM; with ACHN it was above 50 µM; in the assay with A498, above 50 µM.
In the case of `CC1(C)CCC[C@]2(C)[C@H]3CC[C@@]4(C)[C@@H](CC=C(C=O)[C@@H]4C=O)[C@]3(C)CC[C@@H]12` [12-DEACETOXYSCALARADIAL], the IC50 with CV-1 was 45 µM; in assay [1] it was 45.9 µM; in the assay with PANC-1, 38.8 µM; with ACHN, above 50 µM; in the assay on A498 it was above 50 µM.
Turning to `Nc1ccn([C@@H]2O[C@H](CO)[C@@H](O)C2(F)F)c(=O)n1` [GEMCITABINE], the half-maximal inhibitory concentration (IC50) with CV-1 was 21.9 µM; in assay [1] it was 17.1 µM; in the assay with PANC-1, above 50 µM.
Regarding `CCN(CC)CCNC(=O)c1c(C)[nH]c(/C=C2\C(=O)Nc3ccc(F)cc32)c1C` [SUNITINIB], the IC50 came to 5.7 µM with ACHN and 4.3 µM in the assay on A498.
Turning to `CO[C@H]1C[C@@H]2CC[C@@H](C)[C@@](O)(O2)C(=O)C(=O)N2CCCC[C@H]2C(=O)O[C@H]([C@H](C)C[C@@H]2CC[C@@H](OC(=O)C(C)(CO)CO)[C@H](OC)C2)CC(=O)[C@H](C)/C=C(\C)[C@@H](O)[C@@H](OC)C(=O)[C@H](C)C[C@H](C)/C=C/C=C/C=C/1C` [TEMSIROLIMUS], the midpoint of inhibition in the assay with A498, the IC50, lay at 34.3 µM.
